Data reported in US20140328852A1, “IMMUNOGENIC GLUTEN PEPTIDES AND USES THEREOF” (UNIVERSIDAD DE VALLADOLID, priority 2011, published 2014).

What was measured:
Format in all cases: cell-based, human
[1] = tested on: dendritic cells derived from monocytes; assay: Phenotypic maturation of monocyte-derived dendritic cells (flow cytometry of membrane markers); settings: dendritic cells from healthy controls, peptide 100 μg/mL, 48 hours
Protocol: FIG. 2. […] Shadowed histograms represent the expression of the co-stimulator markers (CD40, CD80, CD86) or activators (CD83) in dendritic cells. Empty histograms represent isotype controls. This experiment is representative of three independent experiments; each of them is performed by triplicate.
(§1) Mononuclear cells from ABO-compatible peripheral blood were isolated by centrifugation on a density gradient, and magnetic beads with anti-CD14 antibodies to separate CD14+ monocytes, that were induced for 6 days to differentiate into immature dendritic cells by IL-4 and GM-CSF (confirmed by flow cytometry) were isolated too. These cells were first stimulated for 48 hours with the 8-mer peptide (100 μg/mL, 10 μg/mL, 1 μg/mL) and other known gliadin peptides: 19-mer (100 μg/mL) and 33-mer (100 μg/mL) and then a co-culture with autologous T lymphocytes was performed (population CD14-obtained above), in which dendritic cells act as antigen presenting cells. As negative and positive controls of stimulation, a CD14-cell culture without dendritic cells (basal), and CD14-cells stimulated with lipopolysaccharide (LPS) were used respectively. After 4 days, the cell proliferation rate was calculated according to the absorbance ratio of stimulated/unstimulated dendritic cells in co-culture with autologous T lymphocytes.

[2] = tested on: dendritic cells derived from monocytes; assay: Cytokine mRNA expression in stimulated monocyte-derived dendritic cells; settings: dendritic cells from healthy donors, peptide 100 μg/ml, 48 hours
autologous T lymphocytes = assay: Proliferation of autologous T lymphocytes in co-culture with peptide-stimulated dendritic cells; settings: for proliferative response of autologous T lymphocytes (in words): celiac HLA-DQ2+ and non-celiac HLA-DQ2− samples; for proliferation rate: 4 days co-culture
Protocol: FIG. 4. […] The mean and standard deviation of an experiment performed in triplicate are shown, and which is representative of three independent experiments with similar results. Each experiment was performed with an untreated celiac patient with genotype HLA-DQ2^+ and parallel to a healthy non-celiac individual HLA-DQ2^− as a control (C).
Monocyte-derived dendritic cells serve as antigen presenting cells. Stimulation experiments carried out in the present invention included a positive proliferation control (T lymphocytes cultured in the presence of monocyte-derived dendritic cells pre-activated in the presence of lipopolysaccharide, LPS) and two negative controls: CD14-fraction enriched with cultured T lymphocytes i) in basal medium and ii) in the presence of monocyte-derived dendritic cells unstimulated.
as §1

[3] = peptide 100 μg/ml, cells from celiac patients HLA-DQ2+, ratio stimulated/unstimulated dendritic cells
[4] = peptide 100 μg/ml, cells from non-celiac individuals HLA-DQ2−, ratio stimulated/unstimulated dendritic cells

8-mer: eight amino acid gliadin peptide (SEQ ID NO: 2) generated in the gut of celiac patients by bacterial proteases (FPLQPQQP; listed as Triticum aestivum)
membrane expression of CD40 and CD80 markers [1]: increased
membrane expression of CD83 or CD86 [1]: not
expression of IL-4 mRNA [2]: 79 times
expression of IL-12p40 mRNA [2]: 0.4 times
proliferative response of autologous T lymphocytes (in words) (autologous T lymphocytes): induced a proliferative response
proliferation rate (autologous T lymphocytes; peptide 1 μg/ml, cells from celiac patients HLA-DQ2+): 1.27±0.005
proliferation rate (autologous T lymphocytes; peptide 1 μg/ml, cells from non-celiac individuals HLA-DQ2−): 1.04±0.039
proliferation rate (autologous T lymphocytes; peptide 10 μg/ml, cells from celiac patients HLA-DQ2+): 1.69±0.005
proliferation rate (autologous T lymphocytes; peptide 10 μg/ml, cells from non-celiac individuals HLA-DQ2−): 1.28±0.034
proliferation rate (autologous T lymphocytes; [3]): 2.09±0.029
proliferation rate (autologous T lymphocytes; [4]): 1.51±0.108

33-mer: known immunodominant α-gliadin peptide 33-mer (SEQ ID NO: 5) (LQLQPFPQPELPYPQPELPYPQPELPYPQPQPF; Gluten peptide 33-mer)
membrane expression of CD40 and CD80 markers [1]: did not affect
membrane expression of CD83 or CD86 [1]: did not affect
expression of IL-4 mRNA [2]: 0.001 times
expression of IL-12p40 mRNA [2]: inhibited
proliferative response of autologous T lymphocytes (in words) (autologous T lymphocytes): did not induce proliferation
proliferation rate (autologous T lymphocytes; [3]): 1.04±0.005
proliferation rate (autologous T lymphocytes; [4]): 1.04±0.018

19-mer: known gliadin peptide 19-mer (SEQ ID NO: 4) (LGQQQPFPPQQPYPQPQPF; listed as Triticum monococcum)
membrane expression of CD40 and CD80 markers [1]: did not affect
membrane expression of CD83 or CD86 [1]: did not affect
expression of IL-4 mRNA [2]: 7.7 times
expression of IL-12p40 mRNA [2]: 0.4 times
proliferative response of autologous T lymphocytes (in words) (autologous T lymphocytes): did not induce proliferation
proliferation rate (autologous T lymphocytes; [3]): 1.06±0.011
proliferation rate (autologous T lymphocytes; [4]): 1.03±0.039
